The values below come from paper PMC3739731, “Pharmacological Inhibition of polysialyltransferase ST8SiaII Modulates Tumour Cell Migration” (PLoS ONE, 2013).

By Ki is commonly meant the equilibrium dissociation constant of an inhibitor or competing ligand from its target. The Km is the substrate concentration at which the rate is half of its maximum.

For assay [1], the target named is T1, ST8SiaII (Homo sapiens, UniProt Q92186).
T1 construct: gene ST8SIA2
T1 sequence (Q92186 1-375): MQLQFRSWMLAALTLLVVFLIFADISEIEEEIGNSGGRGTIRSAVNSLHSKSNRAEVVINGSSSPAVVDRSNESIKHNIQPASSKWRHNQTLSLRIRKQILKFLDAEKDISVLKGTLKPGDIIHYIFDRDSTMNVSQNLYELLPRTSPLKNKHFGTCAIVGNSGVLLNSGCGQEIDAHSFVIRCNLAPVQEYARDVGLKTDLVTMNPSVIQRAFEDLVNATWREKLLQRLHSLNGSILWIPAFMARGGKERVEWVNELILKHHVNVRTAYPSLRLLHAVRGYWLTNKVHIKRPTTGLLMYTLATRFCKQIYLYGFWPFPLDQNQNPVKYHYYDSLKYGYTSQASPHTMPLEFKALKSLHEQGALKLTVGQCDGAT
Description: HPLC assay of DMB-DP3 polysialylation with recombinant human ST8SiaII, Dixon plot. The format is biochemical.

Assay [2] addresses T1, ST8SiaII. Description: HPLC-fluorescence enzyme kinetics, Lineweaver-Burk (Km). The format is biochemical.

With `Nc1ccn([C@@H]2O[C@H](COP(=O)(O)O)[C@@H](O)[C@H]2O)c(=O)n1` [CMP], the Ki at ST8SiaII [1] came to 10 µM.
On to DMB-DP3, for which the Km on ST8SiaII [2] was 38.9 µM.
